Like-named read-outs stand apart in the source and are kept apart here.

Here are results for two substances from patent US6500613B1, “Pneumococcal surface proteins and uses thereof” (priority 1995, dated 2002).

One series deals with pspA. Briefly: Amplification of pspA by PCR with oligonucleotides as 5' primers and 3' primer LSM2 (Example 11). On the set-up: species or system Streptococcus pneumoniae. Particulars: 5′ primer in combination with 3′-primer LSM2, 14 strains. Here is the method:
These oligonucleotides were synthesized by Oligos, Etc.
PCR was done with an MJ Research, Inc., Programmable Thermal Cycler (Watertown, Mass.), using approximately 10 ng of genomic pneumococcal DNA as template with designated 5′ and 3′ primer pairs. The sample was brought to a total volume of 50 μl containing a final concentration of 50 mM KCl, 10 mM Tris-HCl (pH 8.3), 1.5 mM MgCl2, 0.01% gelatin, 0.5 μM of each primer, 200 μM of each deoxynucleoside triphosphate, and 2.5 U of Taq DNA polymerase. The samples were denatured at 94° C. for 2 minutes and subjected to 10 cycles consisting of: 1 min at 94° C., 2 min at 50° C., and 3 min at 72° C., followed by 20 cycles of: 1 min at 94° C., 2 min at 60° C., and 3 min at 72° C. After 30 total cycles, the samples were held at 72° C. for an additional 5 min prior to cooling to 4° C. The amplicons were then analyzed by agarose gel electrophoresis.

Series [1] deals with S. pneumoniae isolates MC25, MC26, MC27, MC28. The class given is cell-based, Streptococcus pneumoniae.

On to “LSM111 (DNA CCGGATCCAGCTCCTGCACCAAAAC; chemistry not given here)”, for which, in the series with pspA, the Amplified/Tested was 14/14 and the “Percent Amplified” value stood at 100%.

For the substance Penicillin, the “Penicillin MIC” value came out at 1 µg/mL in series [1] (isolate MC25), 4 µg/mL in series [1] (isolate MC26), 1 µg/mL in series [1] (isolate MC27) and 2 µg/mL in series [1] (isolate MC28).
